Reference: article PMC10290043, “Pharmacokinetics, safety, and antitumor activity of talazoparib monotherapy in Chinese patients with advanced solid tumors” (Investigational New Drugs, 2023)
Where two headings read alike, the source gives them in different places.

Assays:
[1] = tested on: advanced breast cancer and a germline BRCA alteration; parameters: method as in PMID 30110579; details: EMBRACA, cited from earlier work
[2] = parameters: method as in PMID 34388386; details: cited from earlier work
clinical = details: human, in vivo, po, 1 mg
Experimental: A single dose of talazoparib 1 mg was administered orally on Day –9. From Cycle 1 Day 1, patients received talazoparib 1 mg QD orally on a continuous basis at approximately the same time each day (preferably in the morning) until disease progression, death, unacceptable toxicity, or withdrawal of consent. Dose interruptions or reductions were not required unless toxicity persisted at grade 2 for ≥7 days. Daily dosing was paused for grade ≥3 hematologic toxicities. Supportive care including blood products was allowed as appropriate per local guidance. To minimize any drug-drug interaction effects relating to talazoparib exposure and potential alteration to efficacy, co-medication with P-glycoprotein (P-gp) inhibitors and inducers was prohibited for Cycle 1 when intensive PK assessments were scheduled after both single-dose and multiple-dose talazoparib administrations. After Cycle 1, only potent P-gp inhibitors were prohibited to accommodate more co-medication options.
To assess the single-dose PK profile, patients took talazoparib on Day –9 of a 9-day (216 h) lead-in period; blood samples were collected at pre-dose and at 0.5, 1, 2, 4, 8, 24, 48, 96, 168, and 216 h post-dose. For the steady-state PK profile, serial samples after multiple doses of talazoparib were collected on Day 22 of the first cycle at pre-dose and at 0.5, 1, 2, 4, 8, and 24 h post-dose. Prior to serial PK sampling (Cycle 1 Day –9, Cycle 1 Day 22), patients were required to fast for at least 8 h before dosing and they had to continue fasting for 2 h after dosing to control the variability due to food effect on Cmax. For the other PK sampling points, talazoparib could have been taken with or without food. On clinic visit days, talazoparib was administered after completion of a pre-dose blood sampling for PK and assessments. Blood samples of approximately 3 mL, to provide a minimum of 1.5 mL plasma, for measurement of talazoparib concentrations were collected.
Talazoparib PK parameters were calculated for each patient and each treatment, as applicable, using non-compartmental analysis of concentration-time data. Summary statistics were calculated by setting concentration values below the lower limit of quantification to zero.

[3] = Western and Japanese patients; cited from earlier work
[4] = parameters: method as in PMID 30110579; details: EMBRACA, cited from earlier work
[5] = parameters: method as in PMID 31489639; details: population PK model, 490 patients, cited from earlier work
[6] = cited from earlier work; for Tmax: median (range)
[7] = parameters: method as in PMID 35907135; details: Japanese patients, cited from earlier work
advanced solid tumors = test: Antitumor activity: best overall response / unconfirmed objective response by investigator assessment; assay type: in vivo, human
Experimental: Tumor assessments were performed on Day 29 and every 8 weeks thereafter for the initial 12 cycles, regardless of any dose interruptions or dose delays, and then performed per local standard practice after completion of Cycle 12. […] Unconfirmed objective response by investigator assessment was defined as a complete (disappearance of all target lesions) or partial (at least 30% decrease in the sum of diameters of target lesions) response recorded from Cycle 1 Day 1 until disease progression, start of subsequent anticancer therapy, or death due to any cause. Given the exploratory nature of the efficacy endpoint, confirmation of response was not required. Duration of response, calculated as the time from first documentation of complete response or partial response to date of first documentation of objective progression or death, was only calculated for the subgroup of patients with an unconfirmed objective response. All patients who had received at least 1 dose of talazoparib were included in the safety and efficacy analysis sets. All treated patients with at least 1 PK concentration in the single-dose and/or multiple-dose PK part were included in the PK concentration analysis set, and all treated patients with at least 1 of the PK parameters of primary interest in the single-dose and/or multiple-dose PK part were included in the PK parameter analysis set. All patients in the PK parameter analysis set who completed both the single-dose PK and multiple-dose PK parts without major protocol deviations were included in the PK evaluable analysis set.

[8] = Japanese patients, cited from earlier work; for Cmax / Tmax: ref Naito et al 2021 [16]
[9] = multiple dosing 1 mg QD oral, ref de Bono et al 2017
[10] = single dosing 1 mg oral, ref de Bono et al 2017
[11] = 11 patients with measurable disease at baseline
[12] = patients with measurable disease N=11

## Cn1ncnc1[C@H]1c2n[nH]c(=O)c3cc(F)cc(c23)N[C@@H]1c1ccc(F)cc1 [talazoparib]
[1]; versus standard chemotherapy, 95% CI 0.41–0.71, P < 0.001
  Hazard ratio for disease progression or death: 0.54
[1]; vs 5.6 months standard chemotherapy
  Median progression-free survival: 8.6 months
[2]; TALAPRO-1, 10/127
  Grade 3–4 TEAE: neutropenia: 8%
[2]; TALAPRO-1, 11/127
  Grade 3–4 TEAE: thrombocytopenia: 9%
[2]; TALAPRO-1, 39/127
  Grade 3–4 TEAE: anemia: 31%
clinical
  AUC: 86.5 ng·h/mL
  AUC(0-inf): 208 ng·h/mL
  AUC(0-t): 172 ng·h/mL
  Cmax: 8.51 ng/mL
  Tmax: 1.9 h
  Vd/F: 457 L
  half-life: 67 ± 11.8 h
[3]
  Maximum tolerated dose of monotherapy: 1 mg QD
[4]; 42/286
  Grade 3–4 TEAE: thrombocytopenia: 15%
[4]; 60/286
  Grade 3–4 TEAE: neutropenia: 21%
[4]; 112/286
  Grade 3–4 TEAE: anemia: 39%
[5]; 4.79% interpatient variability
  Apparent volume of distribution of the central compartment: 162 L
[5]; 27.0% interpatient variability
  Mean apparent oral clearance: 6.36 L/h
[6]; Western patients with advanced cancers
  Median time to Cmax: ≤ 2 h
[6]; Western patients
  Mean accumulation ratio at steady state: 2.4 fold
  t1/2 (plasma elimination, biphasic kinetics): approximately 2 days
[6]; multiple dosing 1 mg QD oral, N=6, ref de Bono et al 2017
  Cmax: 21.0 (7.99) ng/mL
[6]; [9]
  Tmax: 1.02 (0.75–2.00) h
  CL/F: 5.24 (1.39) L/h
[6]; single dosing 1 mg oral, N=5, US/UK sites, ref de Bono et al 2017
  Cmax: 10.6 (4.22) ng/mL
[6]; single dosing 1 mg oral, arithmetic mean ± standard deviation, ref de Bono et al 2017
  t1/2: 52.9 ± 13.4 h
[6]; single dosing 1 mg oral, column uncertain, ref de Bono et al 2017
  VZ/F: 415 (170) L
[6]; [10]
  Tmax: 1.03 (0.73–2.07) h
  CL/F: 5.39 (1.59) L/h
[7]; 10/19
  Patients with grade 3–4 treatment-related AEs: 52.6%
[7]; 13/19
  Treatment-related AE: anemia: 68.4%
[7]
  Grade 5 AEs: no grade 5 AEs
  Patients with treatment-related AEs: all patients experienced treatment-related AEs
Advanced solid tumors; [11]
  Patients progressed by data cut-off: 54.5%
  Patients with stable disease: 36.4%
Advanced solid tumors; 11 patients with measurable disease at baseline, 95% CI 0.2–41.3
  ORR (best overall response of partial response): 9.1%
Advanced solid tumors; 15 treated patients
  Patients with non-complete response/non-progressive disease: 6.7%
  Patients with partial response: 6.7%
  Patients with stable disease: 26.7%
Advanced solid tumors; 15 treated patients, 95% CI 0.2–31.9
  Unconfirmed objective response rate (investigator-assessed): 6.7%
Advanced solid tumors; 15 treated patients, 95% CI 16.3–67.7
  Disease control based on best overall response: 40.0%
Advanced solid tumors; 95% CI 16.7–76.6
  Disease control rate: 45.5%
Advanced solid tumors; efficacy analysis set N=15
  Best overall response: Complete response: 0 n (%)
  Best overall response: Non-complete response/non-progressive disease: 1 (6.7) n (%)
  Best overall response: Not evaluable: 2 (13.3) n (%)
  Best overall response: Partial response: 1 (6.7) n (%)
  Best overall response: Progressive disease: 7 (46.7) n (%)
  Best overall response: Stable disease: 4 (26.7) n (%)
Advanced solid tumors; efficacy analysis set N=15, CR, PR, SD and non-CR/non-PD
  Disease control: 6 (40.0 [16.3–67.7]) n (%, [95% CI])
Advanced solid tumors; efficacy analysis set N=15, complete and partial responses, Clopper-Pearson CI
  Objective response: 1 (6.7 [0.2–31.9]) n (%, [95% CI])
Advanced solid tumors; [12]
  Best overall response: Complete response: 0 n (%)
  Best overall response: Non-complete response/non-progressive disease: 0 n (%)
  Best overall response: Not evaluable: 0 n (%)
  Best overall response: Partial response: 1 (9.1) n (%)
  Best overall response: Progressive disease: 6 (54.5) n (%)
  Best overall response: Stable disease: 4 (36.4) n (%)
  Disease control: 5 (45.5 [16.7–76.6]) n (%, [95% CI])
Advanced solid tumors; the one responder, measurable disease at baseline
  Duration of response: 114 days
[8]; multiple dose 1 mg QD oral, geometric mean (geometric %CV), ref Naito et al 2021
  AUCtau: 244.7 (21) ng.h/mL
[8]; multiple dose 1 mg QD oral, geometric mean (geometric %CV)
  Cmax: 32.84 ng/mL
[8]; multiple dose 1 mg QD oral, median (range)
  Tmax: 1.03 (0.7–1.9) h
[8]; multiple dose 1 mg QD, median (range), ref Naito et al 2021
  Rac: 2.32 (1.70–8.28)
[8]; single dose 1 mg oral, N=6, geometric mean (geometric %CV)
  Cmax: 13.78 ng/mL
[8]; single dose 1 mg oral, arithmetic mean ± standard deviation, ref Naito et al 2021
  t1/2: 50.73 ± 10.1 h
[8]; single dose 1 mg oral, geometric mean (geometric %CV), ref Naito et al 2021
  AUCinf: 199.7 (9) ng.h/mL
[8]; single dose 1 mg oral, median (range)
  Tmax: 0.97 (0.5–2.0) h
